Patent US9309250B2, “Substituted pyrrolo[2,3-b]pyrazines as ATR kinase inhibitors” (Vertex Pharmaceuticals Incorporated, priority 2011, dated 2016)

These compounds were tested against T1, full-length ATR (Homo sapiens, UniProt Q13535) (assay: ATR Inhibition Assay (radioactive-phosphate incorporation)). Details: Ki(app); 5 nM full-length ATR, 10 μM ATP, 800 μM target peptide, 25° C.
T1 construct: Assays were carried out at 25° C. in the presence of 5 nM full-length ATR
T1 sequence (Q13535 whole entry): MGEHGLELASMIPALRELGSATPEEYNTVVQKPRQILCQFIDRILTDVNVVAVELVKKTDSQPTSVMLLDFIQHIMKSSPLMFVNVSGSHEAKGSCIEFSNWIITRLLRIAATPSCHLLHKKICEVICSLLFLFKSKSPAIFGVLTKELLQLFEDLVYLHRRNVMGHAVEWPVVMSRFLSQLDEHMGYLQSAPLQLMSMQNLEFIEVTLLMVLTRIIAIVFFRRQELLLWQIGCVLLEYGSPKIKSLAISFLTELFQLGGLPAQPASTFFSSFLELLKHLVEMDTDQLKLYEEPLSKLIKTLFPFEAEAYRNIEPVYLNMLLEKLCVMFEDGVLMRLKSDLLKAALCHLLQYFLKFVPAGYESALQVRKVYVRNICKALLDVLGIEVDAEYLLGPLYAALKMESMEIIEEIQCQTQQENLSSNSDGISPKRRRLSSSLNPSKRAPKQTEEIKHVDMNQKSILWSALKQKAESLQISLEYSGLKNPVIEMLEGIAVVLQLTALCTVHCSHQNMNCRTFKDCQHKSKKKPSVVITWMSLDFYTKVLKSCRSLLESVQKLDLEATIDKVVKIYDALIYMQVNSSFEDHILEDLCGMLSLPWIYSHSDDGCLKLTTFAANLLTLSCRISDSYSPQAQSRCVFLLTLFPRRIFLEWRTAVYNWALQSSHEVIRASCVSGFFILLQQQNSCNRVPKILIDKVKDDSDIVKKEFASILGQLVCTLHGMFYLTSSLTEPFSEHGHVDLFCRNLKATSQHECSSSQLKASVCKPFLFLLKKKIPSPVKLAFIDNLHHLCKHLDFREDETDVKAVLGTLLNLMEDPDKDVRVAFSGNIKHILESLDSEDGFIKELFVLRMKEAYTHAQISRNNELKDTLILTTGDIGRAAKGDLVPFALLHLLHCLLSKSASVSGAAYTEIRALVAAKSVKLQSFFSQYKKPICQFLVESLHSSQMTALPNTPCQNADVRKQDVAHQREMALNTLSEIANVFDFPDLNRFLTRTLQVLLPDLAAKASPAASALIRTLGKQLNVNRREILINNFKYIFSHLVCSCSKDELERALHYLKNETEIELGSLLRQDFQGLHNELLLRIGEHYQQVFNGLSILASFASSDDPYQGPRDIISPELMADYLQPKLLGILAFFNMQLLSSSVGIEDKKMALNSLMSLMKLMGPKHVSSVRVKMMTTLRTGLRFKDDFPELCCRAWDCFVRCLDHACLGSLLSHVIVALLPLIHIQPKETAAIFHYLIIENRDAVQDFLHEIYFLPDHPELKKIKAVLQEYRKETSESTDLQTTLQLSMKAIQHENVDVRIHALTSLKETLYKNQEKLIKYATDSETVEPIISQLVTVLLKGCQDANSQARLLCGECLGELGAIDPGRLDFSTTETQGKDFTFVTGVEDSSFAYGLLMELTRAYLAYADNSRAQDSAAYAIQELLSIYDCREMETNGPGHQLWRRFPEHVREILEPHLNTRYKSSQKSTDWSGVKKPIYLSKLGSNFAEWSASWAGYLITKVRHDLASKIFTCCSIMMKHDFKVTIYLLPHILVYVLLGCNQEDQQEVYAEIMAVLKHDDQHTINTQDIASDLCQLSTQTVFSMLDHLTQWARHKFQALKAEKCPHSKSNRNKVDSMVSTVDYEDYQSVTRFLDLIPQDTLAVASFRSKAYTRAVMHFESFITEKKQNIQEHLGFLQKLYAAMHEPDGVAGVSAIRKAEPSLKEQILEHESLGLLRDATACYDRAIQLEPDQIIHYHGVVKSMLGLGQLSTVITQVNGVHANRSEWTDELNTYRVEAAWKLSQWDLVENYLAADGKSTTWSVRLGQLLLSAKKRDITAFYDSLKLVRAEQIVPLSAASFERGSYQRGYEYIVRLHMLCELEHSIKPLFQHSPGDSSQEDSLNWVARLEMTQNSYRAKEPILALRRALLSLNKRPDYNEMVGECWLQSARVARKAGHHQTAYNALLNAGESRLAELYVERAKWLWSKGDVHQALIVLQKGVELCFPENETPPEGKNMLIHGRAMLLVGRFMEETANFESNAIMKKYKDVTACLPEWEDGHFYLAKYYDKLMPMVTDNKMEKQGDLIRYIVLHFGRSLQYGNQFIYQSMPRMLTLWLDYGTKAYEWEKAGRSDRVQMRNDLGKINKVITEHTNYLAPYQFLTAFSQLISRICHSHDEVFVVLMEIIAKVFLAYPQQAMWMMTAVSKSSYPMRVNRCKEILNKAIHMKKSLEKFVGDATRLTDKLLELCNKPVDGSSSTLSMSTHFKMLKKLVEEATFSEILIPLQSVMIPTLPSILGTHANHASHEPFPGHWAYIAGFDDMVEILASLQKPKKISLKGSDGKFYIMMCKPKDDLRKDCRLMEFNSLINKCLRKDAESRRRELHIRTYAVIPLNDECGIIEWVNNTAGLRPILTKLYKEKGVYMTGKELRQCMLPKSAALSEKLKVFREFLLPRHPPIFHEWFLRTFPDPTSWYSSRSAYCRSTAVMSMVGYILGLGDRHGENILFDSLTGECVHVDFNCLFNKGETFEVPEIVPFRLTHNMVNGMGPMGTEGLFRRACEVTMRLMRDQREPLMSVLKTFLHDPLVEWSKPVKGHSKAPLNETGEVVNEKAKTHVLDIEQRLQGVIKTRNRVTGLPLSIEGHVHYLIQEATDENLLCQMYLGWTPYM
Type: biochemical
Protocol: Compounds were screened for their ability to inhibit ATR kinase using a radioactive-phosphate incorporation assay. Assays were carried out in a mixture of 50 mM Tris/HCl (pH 7.5), 10 mM MgCl2 and 1 mM DTT. Final substrate concentrations were 10 μM [γ-33P]ATP (3mCi 33P ATP/mmol ATP, Perkin Elmer) and 800 μM target peptide (ASELPASQPQPFSAKKK) (SEQ. ID. NO: 1).
Assays were carried out at 25° C. in the presence of 5 nM full-length ATR. An assay stock buffer solution was prepared containing all of the reagents listed above, with the exception of ATP and the test compound of interest. 13.5 μL of the stock solution was placed in a 96 well plate followed by addition of 2 μL of DMSO stock containing serial dilutions of the test compound (typically starting from a final concentration of 15 μM with 3-fold serial dilutions) in duplicate (final DMSO concentration 7%). The plate was pre-incubated for 10 minutes at 25° C. and the reaction initiated by addition of 15 μL [γ-33P]ATP (final concentration 10 μM).
The reaction was stopped after […] by the addition of 30 μL 0.1M phosphoric acid containing 2 mM ATP. A multiscreen phosphocellulose filter 96-well plate (Millipore, Cat no. MAPHN0B50) was pretreated with 100 μL 0.2M phosphoric acid prior to the addition of 45 μL of the stopped assay mixture. The plate was washed with 5×200 μL 0.2M phosphoric acid. After drying, 100 μL Optiphase ‘SuperMix’ liquid scintillation cocktail (Perkin Elmer) was added to the well prior to scintillation counting (1450 Microbeta Liquid Scintillation Counter, Wallac).
After removing mean background values for all of the data points, Ki(app) data were calculated from non-linear regression analysis of the initial rate data using the Prism software package (GraphPad Prism version 3.0cx for Macintosh, GraphPad Software, San Diego Calif., USA).
Below is a chart showing the ATR Inhibition Ki values of compounds of the disclosure.
`CC(C)S(=O)(=O)c1ccc(-c2cnc3[nH]cc(N4Cc5ccccc5C4=O)c3n2)cc1` [Compound I-1, 2-(2-(4-(isopropylsulfonyl)phenyl)-5H-pyrrolo[2,3-b]pyrazin-7-yl)isoindolin-1-one] was tested, and the Ki was ≤ 50 nM.
Work on `CC(C)S(=O)(=O)c1ccc(-c2cnc3[nH]cc(N4CCc5ccccc5C4=O)c3n2)cc1` [Compound I-2, 2-(2-(4-(isopropylsulfonyl)phenyl)-5H-pyrrolo[2,3-b]pyrazin-7-yl)-3,4-dihydroisoquinolin-1(2H)-one] yielded a Ki of 100 to 250 nM.
With `CC1c2ccccc2C(=O)N1c1c[nH]c2ncc(-c3ccc(S(=O)(=O)C(C)C)cc3)nc12` (centres unmarked) [Compound I-3, 2-(2-(4-(isopropylsulfonyl)phenyl)-5H-pyrrolo[2,3-b]pyrazin-7-yl)-3-methylisoindolin-1-one] the Ki was ≤ 50 nM.
With `CN(C)C(=O)c1ccc(-c2cnc3[nH]cc(N4Cc5ccccc5C4=O)c3n2)cc1` [Compound I-4, N,N-dimethyl-4-(7-(1-oxoisoindolin-2-yl)-5H-pyrrolo[2,3-b]pyrazin-2-yl)benzamide] the Ki was 50 to 100 nM.
With `O=C1c2ccccc2CN1c1c[nH]c2ncc(-c3ccc(S(=O)(=O)C4COC4)cc3)nc12` [Compound I-5, 2-(2-(4-(oxetan-3-ylsulfonyl)phenyl)-5H-pyrrolo[2,3-b]pyrazin-7-yl)isoindolin-1-one] the Ki was ≤ 50 nM.
In the case of `CC(C)(C#N)c1cc(-c2cnc3[nH]cc(N4Cc5ccccc5C4=O)c3n2)ccn1` [Compound I-6, 2-methyl-2-(4-(7-(1-oxoisoindohn-2-yl)-5H-pyrrolo[2,3-b]pyrazin-2-yl)pyridin-2-yl)propanenitrile], the Ki is reported as ≤ 50 nM.
In the case of `N#CC1(c2cc(-c3cnc4[nH]cc(N5Cc6ccccc6C5=O)c4n3)ccn2)CN2CCC1CC2` (centres unmarked) [Compound I-7, 3-(4-(7-(1-oxoisoindolin-2-yl)-5H-pyrrolo[2,3-b]pyrazin-2-yl)pyridin-2-yl)quinuclidine-3-carbonitrile], the Ki is reported as ≤ 50 nM.
With `O=C1c2ccccc2CN1c1c[nH]c2ncc(-c3ccc(S(=O)(=O)C4CCCNC4)cc3)nc12` (centres unmarked) [Compound I-8, 2-(2-(4-(piperidin-3-ylsulfonyl)phenyl)-5H-pyrrolo[2,3-b]pyrazin-7-yl)isoindolin-1-one] the Ki was ≤ 50 nM.
With `CC(C)S(=O)(=O)c1ccc(-c2cnc3[nH]cc(N4Cc5cc(Br)ccc5C4=O)c3n2)cc1` [Compound I-9, 5-bromo-2-(2-(4-(isopropylsulfonyl)phenyl)-5H-pyrrolo[2,3-b]pyrazin-7-yl)isoindolin-1-one] the Ki was 50 to 100 nM.
Compound `CC(C)S(=O)(=O)c1ccc(-c2cnc3[nH]cc(N4Cc5c(Cl)cccc5C4=O)c3n2)cc1` [Compound I-11, 4-chloro-2-(2-(4-(isopropylsulfonyl)phenyl)-5H-pyrrolo[2,3-b]pyrazin-7-yl)isoindolin-1-one] has a Ki of 50 to 100 nM.
In the case of `CC(C)S(=O)(=O)c1ccc(-c2cnc3[nH]cc(N4Cc5cccc(Cl)c5C4=O)c3n2)cc1` [Compound I-12, 7-chloro-2-(2-(4-(isopropylsulfonyl)phenyl)-5H-pyrrolo[2,3-b]pyrazin-7-yl)isoindolin-1-one], the Ki is reported as ≤ 50 nM.
In the case of `CC(C)S(=O)(=O)c1ccc(-c2cnc3[nH]cc(N4Cc5cccc([N+](=O)[O-])c5C4=O)c3n2)cc1` [Compound I-14, 2-(2-(4-(isopropylsulfonyl)phenyl)-5H-pyrrolo[2,3-b]pyrazin-7-yl)-7-nitroisoindolin-1-one], the Ki is reported as ≤ 50 nM.
For `CC(C)S(=O)(=O)c1ccc(-c2cnc3[nH]cc(N4Cc5cc(CN)ccc5C4=O)c3n2)cc1` [Compound I-15, 5-(aminomethyl)-2-(2-(4-(isopropylsulfonyl)phenyl)-5H-pyrrolo[2,3-b]pyrazin-7-yl)isoindolin-1-one], the Ki was 100 to 250 nM.

Same assay, conditions: numeric bound printed among class symbols; Ki(app); 5 nM full-length ATR, 10 μM ATP, 25° C.
With `CC(C)S(=O)(=O)c1ccc(-c2cnc3[nH]cc(N4Cc5ccc(C#N)cc5C4=O)c3n2)cc1` [Compound I-13, 2-(2-(4-(isopropylsulfonyl)phenyl)-5H-pyrrolo[2,3-b]pyrazin-7-yl)-3-oxoisoindoline-5-carbonitrile] the Ki was > 4000 nM.
